The numbers were not newly measured in patent US11304951B1 (Janssen Pharmaceutica NV, priority 2020, dated 2022), which cites them from elsewhere.

`CCCCCCCCCCCCCCCC(=O)OC1CCCn2c1nc(C)c(CCN1CCC(c3noc4cc(F)ccc34)CC1)c2=O` (racemic) [paliperidone palmitate, (±)-3-[2-[4-(6-fluoro-1,2-benzisoxazol-3-yl)-1-piperidinyl]ethyl]-6,7,8,9-tetrahydro-2-methyl-4-oxo-4H-pyrido[1,2-c]pyrimidin-9-yl hexadecanoate]: the water solubility entry is recorded as “extreme low water solubility”.
